Read-outs that look alike come from different tables or passages of the source.
What was measured:
[1] = acidic pKa; cited from earlier work
[2] = pH 7.0 and 20° C.; cited from earlier work
[3] = cited from earlier work
PGE2 = PGE2 anti-inflammation assay in-vitro; assay type: cell-based; settings: compared to niacinamide

## O=C([O-])C=Cc1ccccc1.[Na+] [Sodium Cinnamate]
[1]
  pKa: 4.32

## O=C(O)C=Cc1ccccc1 [cinnamic acid]
[1]
  pKa: 4.32

## O=C(O)/C=C/c1ccc(O)cc1 [p-coumaric acid]
[2]
  solubility in water: approximately 345 mg/mL
[3]; pH 3
  conjugate base form: approximately 13.4%
[3]; pH 7
  conjugate base form: approximately 99.6%

## Methyl niacinamide
PGE2
  efficacy in PGE2 anti-inflammation assay: equivalent and/or improved efficacy to niacinamide

Source: patent US20240382400A1 (The Procter & Gamble Company, priority 2023, published 2024)
